The experiment concerns the target Nav1.6 (Homo sapiens, UniProt Q9UQD0). Put plainly: Nav two-pulse protocol, IonWorks Quattro electrophysiology. Format: cell-based. Particulars: -120 mV to 0 mV, compound incubated 300 s. The essentials: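 Two-pulse protocol on IonWorks Quattro with amphotericin B (200 μg/ml) perforated patch: holding −120 mV, 2.5 s step to 0 mV, 5 ms gap, 20 ms step to 0 mV. Compounds (0.3% DMSO final) incubated 300 s; block taken as Post/Pre peak inward current for each pulse.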
(In patch-clamp work, channel activity is measured electrically.)

Molecules are shown by their SMILES. Read-outs that look alike come from different tables or passages of the source.

Sequence of Nav1.6 (Q9UQD0 whole entry): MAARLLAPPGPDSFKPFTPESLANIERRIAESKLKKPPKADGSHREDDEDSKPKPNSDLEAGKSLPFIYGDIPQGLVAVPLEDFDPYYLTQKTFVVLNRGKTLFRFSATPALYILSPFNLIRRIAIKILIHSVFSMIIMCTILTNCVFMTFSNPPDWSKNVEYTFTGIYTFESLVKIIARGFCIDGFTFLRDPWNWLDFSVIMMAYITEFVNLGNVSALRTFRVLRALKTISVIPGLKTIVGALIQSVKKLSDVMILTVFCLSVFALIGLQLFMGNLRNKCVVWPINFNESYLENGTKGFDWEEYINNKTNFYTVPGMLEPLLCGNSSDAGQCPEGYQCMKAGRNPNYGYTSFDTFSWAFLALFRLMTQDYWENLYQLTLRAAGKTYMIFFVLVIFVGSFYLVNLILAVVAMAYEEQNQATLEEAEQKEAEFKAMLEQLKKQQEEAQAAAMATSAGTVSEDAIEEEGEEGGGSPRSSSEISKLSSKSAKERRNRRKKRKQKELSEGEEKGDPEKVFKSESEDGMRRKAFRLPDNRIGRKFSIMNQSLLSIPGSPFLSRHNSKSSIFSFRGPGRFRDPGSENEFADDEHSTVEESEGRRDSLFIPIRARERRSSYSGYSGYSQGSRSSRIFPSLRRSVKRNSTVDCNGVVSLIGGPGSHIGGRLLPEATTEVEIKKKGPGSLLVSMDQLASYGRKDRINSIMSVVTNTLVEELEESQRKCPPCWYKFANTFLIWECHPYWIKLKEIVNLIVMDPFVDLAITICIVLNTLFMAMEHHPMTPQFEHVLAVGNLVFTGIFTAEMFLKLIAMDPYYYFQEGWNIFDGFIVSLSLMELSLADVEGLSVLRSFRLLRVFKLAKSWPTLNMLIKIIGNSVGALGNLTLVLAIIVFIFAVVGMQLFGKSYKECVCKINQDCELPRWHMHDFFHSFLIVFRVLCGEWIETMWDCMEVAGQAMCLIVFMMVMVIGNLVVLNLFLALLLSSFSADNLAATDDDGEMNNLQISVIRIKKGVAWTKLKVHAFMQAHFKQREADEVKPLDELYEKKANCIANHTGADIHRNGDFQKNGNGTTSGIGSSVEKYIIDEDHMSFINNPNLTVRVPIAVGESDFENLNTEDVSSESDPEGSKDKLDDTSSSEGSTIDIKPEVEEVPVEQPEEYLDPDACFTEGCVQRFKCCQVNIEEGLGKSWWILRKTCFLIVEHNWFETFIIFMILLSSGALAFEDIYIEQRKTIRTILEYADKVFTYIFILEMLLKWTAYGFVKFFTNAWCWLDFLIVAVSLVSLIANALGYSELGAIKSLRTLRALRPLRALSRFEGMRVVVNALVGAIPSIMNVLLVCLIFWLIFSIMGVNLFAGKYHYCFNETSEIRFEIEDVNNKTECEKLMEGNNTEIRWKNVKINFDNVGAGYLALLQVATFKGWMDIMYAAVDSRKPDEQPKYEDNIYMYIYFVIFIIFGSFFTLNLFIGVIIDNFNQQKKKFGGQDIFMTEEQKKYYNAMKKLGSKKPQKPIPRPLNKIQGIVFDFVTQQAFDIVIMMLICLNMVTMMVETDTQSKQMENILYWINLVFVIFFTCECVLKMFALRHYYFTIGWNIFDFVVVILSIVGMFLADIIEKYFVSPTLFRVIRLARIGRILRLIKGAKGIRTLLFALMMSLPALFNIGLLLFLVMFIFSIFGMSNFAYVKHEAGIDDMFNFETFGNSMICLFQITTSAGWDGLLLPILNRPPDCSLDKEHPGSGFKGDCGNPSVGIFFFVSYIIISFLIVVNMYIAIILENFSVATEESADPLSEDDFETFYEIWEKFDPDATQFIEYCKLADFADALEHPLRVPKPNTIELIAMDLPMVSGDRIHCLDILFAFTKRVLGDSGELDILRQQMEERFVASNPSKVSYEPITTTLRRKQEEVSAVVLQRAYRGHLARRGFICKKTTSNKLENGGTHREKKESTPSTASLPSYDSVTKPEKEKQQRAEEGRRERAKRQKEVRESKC

For the compound `O=C(NCc1ccc(F)cc1)C1CCN(Cc2cccc(Oc3ccccc3)c2)C1` (centres unmarked) [Compound 75, 1-(3-Phenoxy-benzyl)-pyrrolidine-3-carboxylic acid 4-fluoro-benzylamide], the IC50 (read-out: Nav1.6 Tonic) was in the range of 10 to 20 µM and the IC50 (read-out: Nav1.6 inac) lay within 1 to 5 µM.
As to `O=C(NCc1cc(F)cc(F)c1)C1CCN(Cc2cccc(Oc3ccccc3)c2)C1` (centres unmarked) [Compound 76, 1-(3-Phenoxy-benzyl)-pyrrolidine-3-carboxylic acid 3,5-difluoro-benzylamide], the IC50 (read-out: Nav1.6 Tonic) lay in the range of 10 to 20 µM and the IC50 (read-out: Nav1.6 inac) was below 1 µM.
Consider `O=C(NCc1cc(F)ccc1F)C1CCN(Cc2cccc(Oc3ccccc3)c2)C1` (centres unmarked) [Compound 77, 1-(3-Phenoxy-benzyl)-pyrrolidine-3-carboxylic acid 2,5-difluoro-benzylamide], for which the IC50 is, setting by setting: (read-out: Nav1.6 Tonic) 10 to 20 µM; (read-out: Nav1.6 inac) below 1 µM.
`O=C(NCc1ccc(F)cc1F)C1CCN(Cc2cccc(Oc3ccccc3)c2)C1` (centres unmarked) [Compound 78, 1-(3-Phenoxy-benzyl)-pyrrolidine-3-carboxylic acid 2,4-difluoro-benzylamide]: the IC50 lay in the range of 10 to 20 µM (read-out: Nav1.6 Tonic) and 1 to 5 µM (read-out: Nav1.6 inac).
For the compound `O=C(NCc1c(F)cccc1F)C1CCN(Cc2cccc(Oc3ccccc3)c2)C1` (centres unmarked) [Compound 79, 1-(3-Phenoxy-benzyl)-pyrrolidine-3-carboxylic acid 2,6-difluoro-benzylamide], the IC50 was 10 to 20 µM (read-out: Nav1.6 Tonic) and below 1 µM (read-out: Nav1.6 inac).
As to `O=C(NCc1ccc(F)c(F)c1)C1CCN(Cc2cccc(Oc3ccccc3)c2)C1` (centres unmarked) [Compound 80, 1-(3-Phenoxy-benzyl)-pyrrolidine-3-carboxylic acid 3,4-difluoro-benzylamide], the IC50 by setting is: (read-out: Nav1.6 Tonic) 10 to 20 µM; (read-out: Nav1.6 inac) below 1 µM.
Consider `CC(C)(C)c1ccc(CNC(=O)C2CCN(Cc3cccc(Oc4ccccc4)c3)C2)cc1` (centres unmarked) [Compound 81, 1-(3-Phenoxy-benzyl)-pyrrolidine-3-carboxylic acid 4-tert-butyl-benzylamide], for which the IC50 by setting is: (read-out: Nav1.6 Tonic) 10 to 20 µM; (read-out: Nav1.6 inac) below 1 µM.
With `Cc1cccc(CNC(=O)C2CCN(Cc3cccc(Oc4ccccc4)c3)C2)c1` (centres unmarked) [Compound 82, 1-(3-Phenoxy-benzyl)-pyrrolidine-3-carboxylic acid 3-methyl-benzylamide], the IC50 (read-out: Nav1.6 Tonic) was 10 to 20 µM and the IC50 (read-out: Nav1.6 inac) is below 1 µM.
In the case of `Cc1ccc(CNC(=O)C2CCN(Cc3cccc(Oc4ccccc4)c3)C2)cc1` (centres unmarked) [Compound 83, 1-(3-Phenoxy-benzyl)-pyrrolidine-3-carboxylic acid 4-methyl-benzylamide], the IC50 was above 20 µM (read-out: Nav1.6 Tonic) and 1 to 5 µM (read-out: Nav1.6 inac).
Regarding `Cc1ccc(F)cc1CNC(=O)C1CCN(Cc2cccc(Oc3ccccc3)c2)C1` (centres unmarked) [Compound 84, 1-(3-Phenoxy-benzyl)-pyrrolidine-3-carboxylic acid 5-fluoro-2-methyl-benzylamide], the IC50 reads like this: (read-out: Nav1.6 Tonic) 10 to 20 µM; (read-out: Nav1.6 inac) below 1 µM.
Turning to `O=C(NCc1nc(-c2ccccc2)cs1)C1CCN(Cc2cccc(Oc3ccccc3)c2)C1` (centres unmarked) [Compound 85, 1-(3-Phenoxy-benzyl)-pyrrolidine-3-carboxylic acid (4-phenyl-thiaz-1-2-ylmethyl)-amide], the IC50 is above 20 µM (read-out: Nav1.6 Tonic) and 1 to 5 µM (read-out: Nav1.6 inac).
Turning to `O=C(NCCc1c[nH]cn1)C1CCN(Cc2cccc(Oc3ccccc3)c2)C1` (centres unmarked) [Compound 86, 1-(3-Phenoxy-benzyl)-pyrrolidine-3-carboxylic acid [2-(1H-imidazol-4-yl)-ethyl]-amide], where the note is “read-out: Nav1.6 inac”, the IC50 is above 5 µM.
Take `O=C(NCC1CCCO1)C1CCN(Cc2cccc(Oc3ccccc3)c2)C1` (centres unmarked) [Compound 87, 1-(3-Phenoxy-benzyl)-pyrrolidine-3-carboxylic acid (tetrahydro-furan-2-ylmethyl)-amide]: the IC50 (read-out: Nav1.6 Tonic) was below 10 µM and the IC50 (read-out: Nav1.6 inac) is below 1 µM.
For the compound `O=C(NCc1cccs1)C1CCN(Cc2cccc(Oc3ccccc3)c2)C1` (centres unmarked) [Compound 88, 1-(3-Phenoxy-benzyl)-pyrrolidine-3-carboxylic acid (thiophen-2-ylmethyl)-amide], the IC50 (read-out: Nav1.6 Tonic) was above 20 µM and the IC50 (read-out: Nav1.6 inac) is below 1 µM.
`Cc1cnc(CNC(=O)C2CCN(Cc3cccc(OCC(F)(F)F)c3)C2)cn1` (centres unmarked) [Compound 89, 1-[3-(2,2,2-Trifluoro-ethoxy)-benzyl]-pyrrolidine-3-carboxylic acid (5-methyl-pyrazin-2-ylmethyl)-amide]: the IC50 is, setting by setting: (read-out: Nav1.6 Tonic) above 20 µM; (read-out: Nav1.6 inac) 1 to 5 µM.
Regarding `Cc1cccnc1CNC(=O)C1CCN(Cc2cccc(OCC(F)(F)F)c2)C1` (centres unmarked) [Compound 90, 1-[3-(2,2,2-Trifluoro-ethoxy)-benzyl]-pyrrolidine-3-carboxylic acid (3-methyl-pyridin-2-ylmethyl)-amide], the IC50 is above 20 µM (read-out: Nav1.6 Tonic) and 1 to 5 µM (read-out: Nav1.6 inac).
The matching figures for `Cc1ccc(CNC(=O)C2CCN(Cc3cccc(Oc4ccccc4)c3)C2)o1` (centres unmarked) [Compound 91, 1-(3-Phenoxy-benzyl)-pyrrolidine-3-carboxylic acid (5-methyl-furan-2-ylmethyl)-amide]: above 20 µM and above 5 µM.
In the case of `O=C(NCc1cccc(C(F)(F)F)n1)C1CCN(Cc2cccc(OCC(F)(F)F)c2)C1` (centres unmarked) [Compound 92, 1-[3-(2,2,2-Trifluoro-ethoxy)-benzyl]-pyrrolidine-3-carboxylic acid (6-trifluoromethyl-pyridin-2-ylmethyl)-amide], the IC50 is above 20 µM (read-out: Nav1.6 Tonic) and 1 to 5 µM (read-out: Nav1.6 inac).
With `O=C(NCc1ccccn1)C1(O)CCN(Cc2cccc(Oc3ccccc3)c2)C1` (centres unmarked) [Compound 93, 3-hydroxy-1-(phenyloxy-benzyl)-pyrrolidine-3-carboxylic acid (pyridin-2-ylmethyl)-amide], the IC50 by setting is: (read-out: Nav1.6 Tonic) above 20 µM; (read-out: Nav1.6 inac) 1 to 5 µM.
Turning to `O=C(NCc1ccccn1)C1(O)CCN(Cc2cccc(Oc3ccccc3)c2)C1=O` (centres unmarked) [Compound 94, 3-Hydroxy-2-oxo-1-(3-phenoxy-benzyl)-pyrrolidine-3-carboxylic acid (pyridin-2-ylmethyl)-amide], the IC50 runs as follows: (read-out: Nav1.6 Tonic) above 20 µM; (read-out: Nav1.6 inac) 1 to 5 µM.
`O=C(NCc1ccccn1)C1(Cl)CCN(Cc2cccc(Oc3ccccc3)c2)C1=O` (centres unmarked) [Compound 95, 3-Chloro-2-oxo-1-(3-phenoxy-benzyl)-pyrrolidine-3-carboxylic acid (pyridin-2-ylmethyl)-amide]: the IC50 (read-out: Nav1.6 Tonic) was above 20 µM and the IC50 (read-out: Nav1.6 inac) is above 5 µM.
Consider `O=C(NCc1ccc(OC(F)F)cc1)C1CCN(Cc2cccc(Oc3ccccc3)c2)C1` (centres unmarked) [Compound 96, 1-(3-Phenoxy-benzyl)-pyrrolidine-3-carboxylic acid 4-difluoromethoxy-benzylamide], for which the IC50 (read-out: Nav1.6 Tonic) was above 20 µM and the IC50 (read-out: Nav1.6 inac) is above 5 µM.
For `Cc1ccc(CNC(=O)C2CCN(Cc3cccc(OCC(F)(F)F)c3)C2)nc1` (centres unmarked) [Compound 97, 1-[3-(2,2,2-Trifluoro-ethoxy)-benzyl]-pyrrolidine-3-carboxylic acid (5-methyl-pyridin-2-ylmethyl)-amide], the IC50 by setting is: (read-out: Nav1.6 Tonic) above 20 µM; (read-out: Nav1.6 inac) above 5 µM.
`O=C(NCc1ncccc1F)C1CCN(Cc2cccc(OCC(F)(F)F)c2)C1` (centres unmarked) [Compound 98, 1-[3-(2,2,2-Trifluoro-ethoxy)-benzyl]-pyrrolidine-3-carboxylic acid (3-fluoro-pyridin-2-ylmethyl)-amide]: the IC50 by setting is: (read-out: Nav1.6 Tonic) above 20 µM; (read-out: Nav1.6 inac) above 5 µM.
For `CC1(C(=O)NCc2ccccn2)CCN(Cc2coc(-c3ccccc3)n2)C1` (centres unmarked) [Compound 99, 3-Methyl-1-(2-phenyl-oxazol-4-ylmethyl)-pyrrolidine-3-carboxylic acid (pyridin-2-ylmethyl)-amide], the IC50 (read-out: Nav1.6 Tonic) is above 20 µM and the IC50 (read-out: Nav1.6 inac) lay in the range of 1 to 5 µM.
For the compound `CCNC(=O)C1CN(Cc2cccc(Oc3ccccc3)c2)CCO1` (centres unmarked) [Compound 100, 4-(3-Phenoxy-benzyl)-morpholine-2-carboxylic acid ethylamide], the IC50 lay in the range of 10 to 20 µM (read-out: Nav1.6 Tonic) and 1 to 5 µM (read-out: Nav1.6 inac).
The matching figures for `Cn1ccnc1CNC(=O)C1(C)CCN(Cc2cccc(Oc3ccccc3)c2)C1` (centres unmarked) [Compound 101, 3-Methyl-1-(3-phenoxy-benzyl)-pyrrolidine-3-carboxylic acid (1-methyl-1H-imidazol-2-ylmethyl)-amide]: above 20 µM and 1 to 5 µM.
The matching figures for `CC1(C(=O)NCc2ccccn2)CCN(Cc2cnc(-c3ccccc3)s2)C1` (centres unmarked) [Compound 102, 3-Methyl-1-(2-phenyl-thiazol-5-ylmethyl)-pyrrolidine-3-carboxylic acid (pyridin-2-ylmethyl)-amide]: above 20 µM and 1 to 5 µM.
In the case of `CCC(NC(=O)C1(C)CCN(Cc2cccc(Oc3ccccc3)c2)C1)c1cccnc1` (centres unmarked) [Compound 103, 3-Methyl-1-(3-phenoxy-benzyl)-pyrrolidine-3-carboxylic acid (1-pyridin-3-yl-propyl)-amide], the IC50 is, setting by setting: (read-out: Nav1.6 Tonic) above 20 µM; (read-out: Nav1.6 inac) above 5 µM.
In the case of `CN1CCN(C(=O)C2CCN(Cc3cccc(Oc4ccccc4)c3)C2)CC1=O` (centres unmarked) [Compound 104, 1-Methyl-4-[1-(3-phenoxy-benzyl)-pyrrolidine-3-carbonyl]-piperazin-2-one], the IC50 (read-out: Nav1.6 Tonic) is above 20 µM and the IC50 (read-out: Nav1.6 inac) fell in the range of 1 to 5 µM.
For `O=C(NCc1ccccn1)C1CN(Cc2cccc(Oc3ccccc3)c2)CCO1` (centres unmarked) [Compound 105, 4-(3-Phenoxy-benzyl)-morpholine-2-carboxylic acid (pyridin-2-ylmethyl)-amide], the IC50 is above 20 µM (read-out: Nav1.6 Tonic) and 1 to 5 µM (read-out: Nav1.6 inac).
With `O=C(C1CN(Cc2cccc(Oc3ccccc3)c2)CCO1)N1CCOCC1` (centres unmarked) [Compound 106, Morpholin-4-yl-[4-(3-phenoxy-benzyl)-morpholin-2-yl]-methanone], the IC50 was above 20 µM (read-out: Nav1.6 Tonic) and above 5 µM (read-out: Nav1.6 inac).
In the case of `COCCNC(=O)C1CN(Cc2cccc(Oc3ccccc3)c2)CCO1` (centres unmarked) [Compound 107, 4-(3-Phenoxy-benzyl)-morpholine-2-carboxylic acid (2-methoxy-ethyl)-amide], the IC50 runs as follows: (read-out: Nav1.6 Tonic) above 20 µM; (read-out: Nav1.6 inac) 1 to 5 µM.
